Read-outs that look alike come from different tables or passages of the source.
How the values were obtained:
[1] = Acute oral toxicity in female Charles River CD1 mice; details: mouse, in vivo, read-out: % toxicity (percentage of dead animals)
Method: Finally, the products of the invention were studied for their toxicity.
The studies were carried out on groups of 5 female Charles River mice of the CD1 strain, weighing between 20 and 24 g. The products were administered orally, diluted in 5% gum arabic. The acute toxicity was recorded during the 72 hours following administration of the product.
The results below (percentage of dead animals) were obtained as a function of the dose administered.

benzodiazepine receptor = assay: Displacement of tritiated flunitrazepam from the benzodiazepine receptor (synaptic preparations of rat brain); type: binding; details: tritiated flunitrazepam (60 Ci/mM), 1.1 nM final, read-out: median effective concentration (IC50)
Method: ABILITY OF THE DERIVATIVES TO DISPLACE TRITIATED FLUNITRAZEPAM FROM THE BENZODIAZEPINE RECEPTOR
The studies were carried out on synaptic preparations of rat brain in accordance with the method described by Squives and Braestrup (Nature, 1977, 266, pages 732 to 734) and Mohler and Okada (Science, 1977, 198, pages 849 to 851).
The tritiated flunitrazepam (60 Ci/mM) was used at a final concentration of 1.1 nM. The results obtained with various products of the invention are shown in Table III and are expressed as median effective concentration (IC50) in μM.

[2] = system: myorelaxation induced by diazepam; assay: Antagonism of diazepam myorelaxation, traction test in mice; type: in vivo; details: 15 min before diazepam 3 mg/kg i.p., test 60 min after product; for ED50: Mus musculus, 1 h, read-out: Antagonism of the myorelaxation, 50% effective dose (ED50)
Method: (a) Myorelaxant properties.
The studies were carried out by means of the traction test (J. R. Boissier et al., Archives Internationales de Pharmacodynamie, 1961, 135, pages 29-49). This test determines the ability of mice, placed with the front paws on a horizontally stretched wire, to grip with the back paws. The animals which have not brought the back paws onto the wire in less than 5 seconds are considered to be in a state of myorelaxation.
The products are administered 15 minutes before the intraperitoneal injection of a dose of 3 mg/kg of diazepam and the test is performed 60 minutes after administration of the product to be studied. The study was carried out on groups of 10 mice per dose.

[3] = system: anxiolytic effect of diazepam; assay: Antagonism of anxiolytic effect of diazepam, approach-avoidance conflict test in rats; type: in vivo; details: 60 min before diazepam 4 mg/kg i.p.
Method: The studies were carried out on rats in the approach-avoidance conflict test (L. Cook and A. B. Davidson, Effects of behaviorally active drugs in a conflict-punishment procedure in rats. In: The Benzodiazepines, S. Garattini, E. Mussini and L. O. Randall, editors, Raven Press, New York, 1973, 327-345).
A representative product of the invention, SR 95 195, was administered intraperitoneally 60 minutes before an anxiolytic dose of diazepam (4 mg/kg i.p.). The test was performed 30 minutes after administration of the diazepam.

food intake = assay: Food intake of fasted rats; type: in vivo; details: 40 mg/kg orally, first hour
Method: Furthermore, the products according to the invention were studied for their ability to reduce the food intake of fasted rats.
The studies were carried out on isolated female rats (200 to 240 g) trained to consume their food during a period of 4 hours per day. On the day of the test, 60 minutes before the food is provided, the animals receive either the product to be studied or the vehicle of administration. The quantity of food ingested during the first hour is determined.
The values shown in the table are the mean values for groups of 6 rats.

Structure (SMILES) | mortality at 72 h ([1]; 250 mg/kg orally) | mortality at 72 h ([1]; 500 mg/kg orally) | mortality at 72 h ([1]; 1000 mg/kg orally) | IC50 (benzodiazepine receptor) | also measured
c1ccc(-c2cnn3cnnc3c2)cc1 [SR 95 194, 7-Phenyl-1,2,4-triazolo[4,3-b]pyridazine] | 0% | 0% | 100% | 0.049 mM | 
Cc1nnc2cc(-c3ccccc3)cnn12 [SR 95 195] | 0% | 0% | 80% | 0.009 mM | ED50 [2]: 26 mg/kg; % antagonism (anxiolytic effect of diazepam) ([3]; 1.25 mg/kg i.p.): 26%; % antagonism (anxiolytic effect of diazepam) ([3]; 6.25 mg/kg i.p.): 74%; % antagonism (anxiolytic effect of diazepam) ([3]; 25 mg/kg i.p.): 100%; Food intake (food intake; 60 min before food, fasted female rats, mean, groups of 6): 8.6 ± 1.5 g; Food intake, % variation relative to the control animals (food intake; p < 0.01, Student's test): -51%
Cc1nnc2cc(Cc3ccccc3)cnn12 [SR 95 252] | 0% | 0% | 100% | 0.027 mM | 
COc1ccc(-c2cnn3c(C)nnc3c2)cc1 [SR 95 287, 7-(4-Methoxyphenyl)-3-methyl-1,2,4-triazolo[4,3-b]pyridazine] | 0% | 0% | 0% |  | 
Cc1nnc2cc(-c3ccc(Cl)cc3)cnn12 [SR 95 369] | 0% | 100% | 100% |  | 
Cc1ccc(-c2cnn3c(C)nnc3c2)cc1 [SR 95 370] | 40% | 100% | 100% |  | 
Cc1nnc2cc(-c3cccc(Cl)c3)cnn12 [SR 95 398] | 0% | 0% |  | 0.0026 mM | ED50 [2]: 20 mg/kg
Cc1nnc2cc(CCc3ccccc3)cnn12 [SR 95 410] | 0% | 0% | 0% |  | 
Cc1nnc2cc(-c3ccccc3Cl)cnn12 [SR 95 437] | 0% | 0% |  |  | 
c1ccc(Cc2nnc3cc(-c4ccccc4)cnn23)cc1 [SR 95 491, 7-Phenyl-3-benzyl-1,2,4-triazolo[4,3-b]pyridazine] |  |  |  | 0.0045 mM | 
Clc1ccc(-c2nnc3cc(-c4ccccc4)cnn23)cc1 [SR 95 492] | 0% | 0% |  |  | 
c1ccc(-c2cnn3c(-c4ccccc4)nnc3c2)cc1 [SR 95 494] | 0% | 0% |  | 0.05 mM | 
Cc1nnc2cc(-c3cccc(C(F)(F)F)c3)cnn12 [SR 95 533] |  |  |  | 0.0029 mM | Antagonism of the myorelaxation, effect (dose) ([2]; at 100 mg/kg): 100%
